The source of these data is paper PMC9966370, “Biological Evaluation and In Vitro Characterization of ADME Profile of In-House Pyrazolo[3,4-d]pyrimidines as Dual Tyrosine Kinase Inhibitors Active against Glioblastoma Multiforme” (Pharmaceutics, 2023).

Read-outs that look alike come from different tables or passages of the source. Marks after values point to notes of the source that are not given here.

For data set [1] the following is noted: HLM, previously published, cited from earlier work; for Metabolite Formation M1: M1 = M − HCl + O.
In data set [2] the test system is U-87 GBM cell line. The following applies: previously published; cited from earlier work.
Another data set concerns LN18 GBM cell line. As to the kind of experiment: antiproliferative activity, MTT assay, LN18. Format: cell-based. The following applies: Homo sapiens, LN-18, 72 h treatment. The method, then: (§1) Cell-based assays were performed using four GBM cell lines, i.e., U-87, LN18, LN229, and DBTRG, cultured in Dulbecco’s modified Eagle medium (DMEM) (U-87, LN18, and LN229) or Roswell Park Memorial Institute medium (RPMI 1640) (DBTRG). Both media were implemented with 10% fetal bovine serum (FBS), 2 mM L-glutamine, and 10,000 units/mL penicillin/streptomycin at 37 °C in a 5% CO2 atmosphere. […] The final concentration of DMSO used never exceeded 0.5% v/v, and appropriate controls were always performed in each assay. […] These were cultured in DMEM supplemented with 10% FBS, 2 mM L-glutamine, and 10,000 units/mL penicillin/streptomycin at 37 °C in a 5% CO2 atmosphere. The protocol used to assess the cytotoxic effect on both healthy cell lines was the same described above for the antiproliferative assay. For both the antiproliferative and the cytotoxic assays, 3-(4,5-dimethylthiazol-2-yl)-2,5-diphenyltetrazolium bromide (MTT) was used to assess cell viability as previously described. Briefly, 150 μL of MTT (5 mg/mL in FBS-free culture medium) was added to each well, and the plates incubated for 4 h in a 5% CO2 atmosphere at 37 °C. Afterward, formazan violet crystals were solubilized in 150 μL of isopropanol, and the absorbance was quantified at 570 nm using a Multiskan SkyHigh Microplate Spectrophotometer (ThermoFisher, Waltham, MA, USA). Cell viability was expressed as a percentage of DMSO-treated cells (controls), taken as 100%. […] To support MTT data, cytotoxicity assays was always paralleled by a careful observation of cells under a phase-contrast light microscope, as described in USP 28 (United States Pharmacopeia edition 2005) as an alternative method. This analysis was performed by an expert operator blind to the treatment, and exemplificative photos representing the effects of compound 5 on LN229 and DBTRG cells are reported in Figures S2 and S3 (Supplementary Materials).

The next data set concerns keratinocytes HaCaT. In words: cytotoxicity on nontumoral healthy cells, MTT assay, HaCaT. It is filed as cell-based, human. The following applies: 72 h treatment. For orientation: Tetrazolium dyes change colour on reduction, which living cells bring about.
Test in data set [3]: as above
Format: cell-based, human. The following applies: human, HaCaT keratinocytes, 72 h treatment.
Procedure: (§4) The protocol used to assess the cytotoxic effect on both healthy cell lines was the same described above for the antiproliferative assay. For both the antiproliferative and the cytotoxic assays, 3-(4,5-dimethylthiazol-2-yl)-2,5-diphenyltetrazolium bromide (MTT) was used to assess cell viability as previously described [20]. […] Afterward, formazan violet crystals were solubilized in 150 μL of isopropanol, and the absorbance was quantified at 570 nm using a Multiskan SkyHigh Microplate Spectrophotometer (ThermoFisher, Waltham, MA, USA). Cell viability was expressed as a percentage of DMSO-treated cells (controls), taken as 100%.

In the next data set the test system is DBTRG GBM cell line. As to the kind of experiment: antiproliferative activity, MTT assay, DBTRG. It is filed as cell-based. The following applies: Homo sapiens, 72 h treatment. The method, then:
as §1

The next data set deals with fibroblasts FIBRO 2-93. In words: cytotoxicity on nontumoral healthy cells, MTT assay, FIBRO 2-93. Format: cell-based, human. The following applies: for CC50: 72 h treatment, MTT; for CC50 times higher than IC50: CC50 on FIBRO 2-93 and HaCaT vs IC50 on GBM cells.
Test in data set [4]: as above
Procedure: as §4
It is filed as cell-based, human. The following applies: human, FIBRO 2-93 healthy fibroblasts, 72 h treatment, MTT.

A further data set deals with LN229 GBM cell line. As to the kind of experiment: antiproliferative activity, MTT assay, LN229. It is filed as cell-based. The following applies: Homo sapiens, LN-229, 72 h treatment. The method, then:
as §1

The test system of data set [5] is LN229 cells. As to the kind of experiment: T-scratch assay (cell migration). It is filed as cell-based, human. The following applies: for wound closure: after 72 h; for wound left opened: all timepoints (24–48–72 h).
Procedure: The scratched area was observed and photographed at 10× magnification after 0–24–48–72 h (see Figure S5, Supplementary Materials).
The nature of data set [6]: metabolic stability assay in human liver microsomes. Format: in vitro ADME. The following applies: HLM 0.2 mg/mL, NADPH, 1 h, 37 °C. The method, then:
(§2) UV/LC–MS chromatographic analyses were carried out using an Agilent 1100 LC/MSD VL system (G1946C) purchased from Agilent Technologies (Palo Alto, CA, USA). […] The analysis began with 5% B (t = 0–1 min), increased to 95% (t = 1–10 min), maintained at 95% (t = 10–19 min), and finally returned to 5% […]. The analyses were performed at a flow rate of 0.6 mL/min, UV detection was monitored at 254 nm, and spectra were acquired over the scan range of m/z 100–1000 in both positive and negative modes.
Each DMSO compound solution was incubated for 1 h at 37 °C in the presence of 500 µL of PBS (25 mM, pH 7.4), human liver microsomal (HLM) proteins (0.2 mg/mL), and 10 mM NADPH solution in MgCl2 (48 mM). The reactions were stopped with 1.0 mL of cold ACN. The samples were centrifuged (4000 rpm for 10 min), and the supernatants were collected, dried under N2 flow, and suspended in 100 µL of methanol (MeOH). Parent drugs and metabolites were determined using the previously described HPLC/UV–MS method. The percentage metabolic stability was calculated by comparing the metabolized and unmetabolized compounds.
(In general: Microsomes from liver hold many membrane-bound enzymes, among them those of drug oxidation.)

Another data set is described as follows: PAMPA, GI permeability. It is filed as in vitro ADME. The following applies: RT; for GI membrane retention (MR%): 5 h, pH 7.4; for Papp at 5 h, 500 µM: pH 7.4, PAMPA. The method, then:
as §2
(§3) The DMSO stock of each compound was diluted with phosphate buffer (PBS 25 mM, pH 7.4) to a final concentration of 500 µM in order to obtain the “donor”. For GI and BBB permeability, filters were coated with 10 µL of 1% w/v dodecane phosphatidylcholine solution or 5 µL of 10% w/v CHCl3/dodecane brain polar lipid solution. The donor (150 µL) was poured over the artificial membranes on the filter plate. DMSO/PBS (300 µL, 1:1 v/v) was then added to the acceptor wells. After assembling the sandwich plates, the experiments were run for 5 h at room temperature (RT). Lastly, the amount of compound passed though the artificial membranes was determined using the UV/LC–MS method described above. Apparent permeability (Papp) and membrane retention (MR%) were determined as previously described.

Data set [7] relates to LN229 cells. In words: reversible/irreversible effect on LN229 cell death (MTT). Format: cell-based, human. The following applies: for further decrease in cell viability: 24 h treatment followed by 48 h without compound, vs 24 h.
Data set [8] has as its system LN229 cells. As to the kind of experiment: cell-cycle analysis by flow cytometry, LN229. Format: cell-based, human. The following applies: LN229, 72 h at IC50 (6.9 µM).
The next data set has as its target T1, c-Src (Homo sapiens, UniProt P12931).
T1 construct: purchased Promega (Madison, WI, USA)
In words: cell-free enzymatic assay (ADP-Glo), c-Src. It is filed as biochemical. (In ADP-Glo the light output rises with the ADP produced.)

A further data set has as its system DBTRG cells. As to the kind of experiment: cell-cycle analysis by flow cytometry, DBTRG. It is filed as cell-based, human. The following applies: 72 h at IC50 (8.5 µM).
A short description of another data set: PAMPA, BBB permeability. It is filed as in vitro ADME. The following applies: RT; for BBB membrane retention (MR%): 5 h, pH 7.4; for Papp at 5 h, 500 µM: pH 7.4, PAMPA. The method, then: as §2, §3
Data set [9] has as its system U-87 GBM cell line. In words: antiproliferative activity, MTT assay, U-87. Format: cell-based. The following applies: Homo sapiens, 72 h treatment. The method, then:
as §1

On the set-up of data set [10]: method as in PMID 21443205. The following applies: previously published; cited from earlier work.
A further data set concerns the target T2, Abl (Homo sapiens, UniProt P00519).
T2 construct: purchased Promega (Madison, WI, USA)
In words: cell-free enzymatic assay (ADP-Glo), Abl. Format: biochemical. The following applies: 30 µM ATP, 50 µM Abltide.

T1 sequence (P12931 whole entry): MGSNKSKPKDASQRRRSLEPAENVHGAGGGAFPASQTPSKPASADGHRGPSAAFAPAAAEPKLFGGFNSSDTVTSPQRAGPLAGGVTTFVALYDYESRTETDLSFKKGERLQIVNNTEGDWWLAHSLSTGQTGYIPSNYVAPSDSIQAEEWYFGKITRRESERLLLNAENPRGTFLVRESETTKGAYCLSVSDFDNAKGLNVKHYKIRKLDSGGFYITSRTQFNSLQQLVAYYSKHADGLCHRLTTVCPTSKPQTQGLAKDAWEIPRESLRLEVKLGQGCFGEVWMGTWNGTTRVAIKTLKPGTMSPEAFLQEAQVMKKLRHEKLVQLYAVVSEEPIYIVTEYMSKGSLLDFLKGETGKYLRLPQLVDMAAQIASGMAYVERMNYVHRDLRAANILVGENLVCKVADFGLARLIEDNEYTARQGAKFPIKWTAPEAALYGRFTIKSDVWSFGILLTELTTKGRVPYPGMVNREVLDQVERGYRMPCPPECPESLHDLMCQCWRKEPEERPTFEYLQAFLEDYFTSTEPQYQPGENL
T2 sequence (P00519 whole entry): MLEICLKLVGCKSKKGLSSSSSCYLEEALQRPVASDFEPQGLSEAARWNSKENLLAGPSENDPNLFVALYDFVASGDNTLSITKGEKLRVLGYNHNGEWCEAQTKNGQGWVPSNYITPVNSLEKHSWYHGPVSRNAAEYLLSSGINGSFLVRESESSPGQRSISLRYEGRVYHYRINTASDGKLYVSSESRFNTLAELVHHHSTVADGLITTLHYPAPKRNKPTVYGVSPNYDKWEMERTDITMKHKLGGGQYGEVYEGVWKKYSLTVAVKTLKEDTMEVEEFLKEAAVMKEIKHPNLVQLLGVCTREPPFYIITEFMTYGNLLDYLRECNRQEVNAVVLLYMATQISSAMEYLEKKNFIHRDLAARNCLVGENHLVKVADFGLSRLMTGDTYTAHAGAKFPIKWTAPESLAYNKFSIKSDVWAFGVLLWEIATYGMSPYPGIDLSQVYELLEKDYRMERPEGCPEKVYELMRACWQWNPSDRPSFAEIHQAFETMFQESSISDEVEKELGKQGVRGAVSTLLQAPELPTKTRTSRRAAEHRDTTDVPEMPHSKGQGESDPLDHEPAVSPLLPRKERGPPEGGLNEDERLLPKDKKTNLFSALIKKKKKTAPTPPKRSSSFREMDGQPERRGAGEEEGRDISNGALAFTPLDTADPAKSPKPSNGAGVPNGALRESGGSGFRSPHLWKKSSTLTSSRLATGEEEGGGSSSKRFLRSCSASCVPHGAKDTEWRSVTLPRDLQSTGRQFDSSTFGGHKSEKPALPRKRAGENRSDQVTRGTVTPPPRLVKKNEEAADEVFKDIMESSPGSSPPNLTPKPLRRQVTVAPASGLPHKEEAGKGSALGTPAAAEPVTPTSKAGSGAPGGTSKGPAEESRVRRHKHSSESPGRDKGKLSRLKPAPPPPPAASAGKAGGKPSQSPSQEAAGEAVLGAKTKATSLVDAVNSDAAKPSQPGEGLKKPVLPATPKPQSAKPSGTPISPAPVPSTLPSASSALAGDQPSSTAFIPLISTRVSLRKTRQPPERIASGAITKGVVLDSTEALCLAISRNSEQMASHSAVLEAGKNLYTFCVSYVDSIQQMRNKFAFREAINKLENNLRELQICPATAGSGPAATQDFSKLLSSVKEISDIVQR
Procedure for Abl: (§5) The reactions were carried out in accordance with the manufacturer’s instructions, with minor modifications. The experiments were run using all substrates at least twice the concentration of apparent Km. […] All reactions were run out at 30 °C for 10 min with 10–50 ng of enzyme and 10 µL of 10% DMSO. Protein low-binding tubes were used to prevent peptide adsorption onto the plastic surface. To detect kinase activity, the ADP-Glo Kinase Assay (Promega, Madison, WI, USA) was used according to the manufacturer’s protocol. Into white 384-well plates, reactions were stopped for 50 min at RT by adding 10 µL of ADP-Glo Reagent (Promega, Madison, WI, USA). After 30 min, 20 µL of Detection Reagent (Promega, Madison, WI, USA) was added, and the reaction was read using a GloMax Discover microplate reader (Promega, Madison, WI, USA). […] Compounds analyzed were considered to act as ATP-competitive inhibitors.
Procedure for c-Src: as §5
Procedure for fibroblasts FIBRO 2-93: as §4
Procedure for keratinocytes HaCaT: as §4

`ClC(Cn1ncc2c(NCc3ccccc3)ncnc21)c1ccccc1` (stereo not shown) [Compound 1]: the “Metabolite Formation M1” value in [1] was 14.5%. The “Metabolite Formation M2” value in data set [1] (M2 = M + OH) is recorded as less than 0.1%. Further, the “Metabolite Formation M3” value in [1] (M3 = M—group bearing NH moiety in R2) was 2.6%. Further, in data set [1] (M4 = M − Cl + OH (−35 + 17)), the “Metabolite Formation M4” value was 4.5%. Besides, the “Metabolic Stability” value in data set [1] is recorded as “lower than 80%”. Moreover, the half-inhibitory concentration (IC50) (commonly the concentration at which inhibition is half-maximal) with U-87 GBM cell line [2] was 2.9 ± 1.1 µM; with LN18 GBM cell line, 3.6 ± 0.5 µM; in the data set with DBTRG GBM cell line it was 4.3 ± 0.8 µM; in the data set on LN229 GBM cell line, 3.4 ± 0.8 µM. Besides, the CC50 (commonly the concentration at which the toxic effect on the cells reaches its halfway point) with keratinocytes HaCaT was determined as 88.7 ± 5.7 µM; in the data set with fibroblasts FIBRO 2-93, 86.9 ± 4.2 µM. In addition, the CC50 at 72 h in data set [3] and in data set [4] was roughly 87 µM throughout. The “CC50 times higher than IC50” value with fibroblasts FIBRO 2-93 was determined as 10 times.
For the compound `Fc1ccc(C(Cl)Cn2ncc3c(NCc4ccccc4)ncnc32)cc1` (stereo not shown) [Compound 5], the melting point (commonly the temperature of the solid-liquid transition) lay in the range of 143 to 144 °C. Also, the wound closure in the data set with LN229 cells [5] (0.25 µM) is recorded as roughly 60%. In the data set with LN229 cells [5] (0.5 µM), this compound registered a wound closure of roughly 60%. The wound left opened entry in the data set with LN229 cells [5] (2.5 µM) is recorded as “more than 80%”. Besides, the wound left opened entry in the data set with LN229 cells [5] (5 µM) is recorded as “more than 80%”. Also, the “Metabolic Stability” value in data set [6] was determined as 84.2%. For the same compound, in “PAMPA, GI permeability”, the “GI membrane retention (MR%)” value came to 9.2% and the apparent permeability (Papp) (as a rule, a coefficient for how fast a substance crosses the barrier) at 5 h, 500 µM is no less than 10 ×10⁻⁶ cm/s. Further, in the data set on LN229 cells [7] (10 µM), the “further decrease in cell viability” value was ~ −30%. Also, the “further decrease in cell viability” value in the data set with LN229 cells [7] (100 µM) is on record as ~ −30%. Moreover, in the data set with LN229 cells [7] (24 h treatment, 48 h drug-free medium), the “reversibility of cytotoxic effect” value is “irreversible cytotoxic effect”. Further, in the data set with LN229 cells [8], the “change in cells in G0/G1 phase vs control” value was −32.4%; the “change in cells in sub G0/G1 phase vs control” value is on record as “+32.1%”; the “percentage of cells in the S and G2/M phases vs control” value is given as “No significant differences”. Besides, in the data set on LN18 GBM cell line, the IC50 was 10.8 ± 1.4 µM. Moreover, on c-Src (100 µM ATP, 500 µM Src-peptide, read-out: c-Src Ki), the inhibition constant Ki (in general, the equilibrium dissociation constant of an inhibitor or competing ligand from its target) is 3.14 ± 0.38 µM. This compound yielded a CC50 with keratinocytes HaCaT of 126 ± 6.4 µM. Besides, the cytotoxic concentration (CC50) at 72 h in data set [3] is greater than 90 µM. For the same compound, in the data set with DBTRG cells, the “change in cells in G2/M phase vs control” value is listed as “+38.1%” and the “change in cells in sub G0/G1 area vs control” value was “+15.6%”. This compound returned a concentration for half-maximal inhibition (IC50) in the data set with DBTRG GBM cell line of 8.5 ± 1.4 µM. In the data set on fibroblasts FIBRO 2-93, the CC50 turned out to be 91.7 ± 5.3 µM and the “CC50 times higher than IC50” value is recorded as 10 times. The same compound gave a CC50 at 72 h in [4] greater than 90 µM. Further, in the data set with LN229 GBM cell line, the half-maximal inhibitory concentration (IC50) is 6.9 ± 0.5 µM. In addition, in “PAMPA, BBB permeability”, the “BBB membrane retention (MR%)” value amounted to 5.6% and the apparent permeability (Papp) at 5 h, 500 µM was no less than 10 ×10⁻⁶ cm/s. Also, the IC50 in the data set on U-87 GBM cell line [9] came out at 6.8 ± 0.3 µM.
As for `ClC(Cn1ncc2c(NCc3ccccc3)nc(SCCN3CCOCC3)nc21)c1ccccc1` (stereo not shown) [Compound 9], the “Metabolite Formation M1” value in data set [1] was “M1 = 5 * %”. In addition, the concentration for half-maximal inhibition (IC50) with LN18 GBM cell line was 2.9 ± 0.5 µM; in the data set on DBTRG GBM cell line it was 59.4 ± 3.7 µM; in the data set with LN229 GBM cell line it was 58.2 ± 3.4 µM; in the data set with U-87 GBM cell line [9] it was greater than 100 µM. Besides, the “QP LogS” value in data set [10] was −5.6 *. Besides, the “BBB membrane retention (MR%)” value in “PAMPA, BBB permeability” came out at 6.3%. This compound also returned a Papp at 5 h, 500 µM in “PAMPA, BBB permeability” of 2.6 ×10⁻⁶ cm/s.
`Clc1ccc(C(Cl)Cn2ncc3c(NCCc4ccccc4)ncnc32)cc1` (stereo not shown) [Compound 10]: the “Metabolic Stability” value in data set [6] was found to be 85.9%. Further, the “GI membrane retention (MR%)” value in the data set “PAMPA, GI permeability” is recorded as 17.2%. Besides, the Papp at 5 h, 500 µM in “PAMPA, GI permeability” is no less than 10 ×10⁻⁶ cm/s; in “PAMPA, BBB permeability”, no less than 10 ×10⁻⁶ cm/s. The half-inhibitory concentration (IC50) in the data set on LN18 GBM cell line was 6.2 ± 1 µM; with DBTRG GBM cell line, 46.5 ± 4.1 µM; in the data set with LN229 GBM cell line it was 27.9 ± 2.1 µM; in the data set with U-87 GBM cell line [9] it was 33.9 ± 2.9 µM. Also, the Ki on c-Src was determined as 0.22 ± 0.03 µM; at Abl, 0.31 ± 0.02 µM. In the data set “PAMPA, BBB permeability”, the “BBB membrane retention (MR%)” value worked out at 4.8%.
